In patent publication US11744898B2, “Multi-arm polymer conjugates of TLR agonist compounds and related immunotherapeutic treatment methods” (Nektar Therapeutics, priority 2017, dated 2023):

Key:
[1] = Plasma and tumor concentrations following single 10 μg (R848 equivalents) intratumoral administration to EMT6 tumor bearing mice; format: in vivo, Balb/c mice; set-up: unit not given here
Description: (§1) Studies were conducted to evaluate the single dose pharmacokinetics of R848 and Compound 6 in plasma and tumor tissue.
(§2) Plasma and tumor tissues were collected at pre-determined time points for analysis of R848 and Compound 6 using a qualified LC-MS/MS method.

[2] = Plasma and tumor concentrations following single 10 μg (R848 equivalents) intratumoral administration to CT26 tumor bearing mice; format: in vivo, Balb/c mice; set-up: unit not given here
Description: as §1, §2

CT26 tumor cells = assay: Effect of treatment in vivo on intratumoral immune cell types by flow cytometry, CT26 tumors; set-up: species or system Balb/c mice
Description: The other (contralateral) tumor was not dosed with R848.
Immune cell subtypes were measured by flow cytometry.

[3] = Plasma and tumor concentrations following single 10 μg (R848 equivalents) intratumoral administration to CT26 tumor bearing mice; format: in vivo, Balb/c mice; set-up: key: +<10; 10≤++<100; 100≤+++<1,000; 1,000≤++++; BLQ is Below the Limit of Quantitation
Description: as §1, §2

[4] = test system: proinflammatory cytokines IFNα, IFNγ, TNFα, IL-6 and IL-12; assay: Plasma cytokine induction after Compound 6 or resiquimod with staggered RSLAIL-2 in CT26 model; format: in vivo, Balb/c mice
Description: The concentration of proinflammatory cytokines IFNα, IFNγ, TNFα, IL-6 and IL-12 was determined in plasma by multiplex protein measurement assay at indicated time points post dose.

[5] = Plasma and tumor concentrations following single 10 μg (R848 equivalents) intratumoral administration to EMT6 tumor bearing mice; format: in vivo, Balb/c mice; set-up: key: +<10; 10≤++<100; 100≤+++<1,000; 1,000≤++++; BLQ is Below the Limit of Quantitation
Description: as §1, §2

STAT5 phosphorylation = STAT5 phosphorylation in lymphocytes by flow cytometry after administration in mice; format: in vivo
From the text: Conventional approaches, such as those involving radiolabeling a compound, administering it in vivo, and determining its clearance, can be used to determine whether a compound proposed to be a long-acting IL-2Rβ biased agonist is “long-acting”. For the purposes herein, the long acting nature of an IL-2Rβ biased agonist is typically determined using flow cytometry to measure STAT5 phosphorylation in lymphocytes at various time points after administration of the agonist to be evaluated in mice. As a reference, the signal is lost by around 24 hours with IL-2, but is sustained for a period greater than that for a long-acting IL-2Rβ-biased agonist.

[6] = test system: subcutaneous B16F10 mouse melanoma tumors; assay: Immune cells in tumor microenvironment by flow cytometry, B16F10 melanoma model; format: in vivo, mice; details: day 7; single dose of RSLAIL-2 or 5 doses of aldesleukin
[7] = plasma, 10 μg intra/peritumoral

For `CCOCc1nc2c(N)nc3ccccc3c2n1CC(C)(C)O` [Compound R848, 1-(4-Amino-2-(ethoxymethyl)-1H-imidazo[4,5-c]quinolin-1-yl)-2-methylpropan-2-ol], which R848 plasma concentration ([1]; 0.25 hr post-dose) is on record?
The R848 plasma concentration was “+++ (100≤+++<1,000)”.

What about the R848 tumor concentration ([1]; 0.25 hr post-dose) of the same compound?
The R848 tumor concentration was “++ (1,000≤++<10,000)”.

And the R848 plasma concentration ([1]; 2.00 hr post-dose)?
The R848 plasma concentration was “+ (+<10)”.

What about the R848 tumor concentration ([1]; 2.00 hr post-dose) of the same compound?
The R848 tumor concentration was “+ (+<1,000)”.

And the R848 plasma concentration ([1]; 6.00 hr post-dose)?
Its R848 plasma concentration is “+ (+<10)”.

What about the R848 tumor concentration ([1]; 6.00 hr post-dose) of the same compound?
Its R848 tumor concentration is “+ (+<1,000)”.

What about the R848 tumor concentration ([1]; 24.00 hr post-dose) of the same compound?
Its R848 tumor concentration is “+ (+<1,000)”.

And the R848 tumor concentration ([1]; 72.00 hr post-dose)?
Its R848 tumor concentration is “+ (+<1,000)”.

And the R848 tumor concentration ([1]; 96.00 hr post-dose)?
Its R848 tumor concentration is “+ (+<1,000)”.

And the R848 tumor concentration ([1]; 120.00 hr post-dose)?
The R848 tumor concentration was “+ (+<1,000)”.

And the R848 tumor concentration ([1]; 144.00 hr post-dose)?
The R848 tumor concentration was “+ (+<1,000)”.

What about the R848 plasma concentration ([2]; 0.25 hr post-dose) of the same compound?
Its R848 plasma concentration is “++ (10≤++<100)”.

What about the R848 tumor concentration ([2]; 0.25 hr post-dose) of the same compound?
The R848 tumor concentration was “++ (1,000≤++<10,000)”.

What about the R848 plasma concentration ([2]; 2.00 hr post-dose) of the same compound?
The R848 plasma concentration was “+ (+<10)”.

What about the R848 tumor concentration ([2]; 2.00 hr post-dose) of the same compound?
Its R848 tumor concentration is “+ (+<1,000)”.

What about the R848 plasma concentration ([2]; 6.00 hr post-dose) of the same compound?
Its R848 plasma concentration is “+ (+<10)”.

What about the R848 tumor concentration ([2]; 6.00 hr post-dose) of the same compound?
Its R848 tumor concentration is “+ (+<1,000)”.

What about the R848 plasma concentration ([2]; 24.00 hr post-dose) of the same compound?
The R848 plasma concentration was “+ (+<10)”.

And the R848 tumor concentration ([2]; 24.00 hr post-dose)?
Its R848 tumor concentration is “+ (+<1,000)”.

What about the R848 tumor concentration ([2]; 72.00 hr post-dose) of the same compound?
The R848 tumor concentration was “+ (+<1,000)”.

What about the R848 tumor concentration ([2]; 96.00 hr post-dose) of the same compound?
Its R848 tumor concentration is “+ (+<1,000)”.

What about the R848 tumor concentration ([2]; 120.00 hr post-dose) of the same compound?
Its R848 tumor concentration is “+ (+<1,000)”.

What about the R848 tumor concentration ([2]; 144.00 hr post-dose) of the same compound?
The R848 tumor concentration was “+ (+<1,000)”.

And the “CD8 T Cells (Percent of Vehicle)” value (CT26 tumor cells)?
The value was 95%.

And the “CD11c+ CD8+ Dendritic Cells (Percent of Vehicle)” value (CT26 tumor cells)?
Its value is 135%.

And the “Macrophages (Percent of Vehicle)” value (CT26 tumor cells)?
Its value is 80%.

And the “Monocytes (Percent of Vehicle)” value (CT26 tumor cells)?
Its value is 160%.

What about the “Neutrophils (Percent of Vehicle)” value (CT26 tumor cells) of the same compound?
Its value is 500%.

And the “T Regulatory Cells (Percent of Vehicle)” value (CT26 tumor cells)?
Its value is 20%.

And the R848 plasma concentration ([3]; 72.00 hr post-dose)?
Its R848 plasma concentration is “BLQ”.

And the R848 plasma concentration ([3]; 96.00 hr post-dose)?
Its R848 plasma concentration is “BLQ”.

And the R848 plasma concentration ([3]; 120.00 hr post-dose)?
The R848 plasma concentration was “BLQ”.

And the R848 plasma concentration ([3]; 144.00 hr post-dose)?
Its R848 plasma concentration is “BLQ”.

And the “pro-inflammatory cytokine induction in blood, in words” value ([4]; 10 μg single intra/peritumoral dose)?
The value was “robust pro-inflammatory cytokine induction in blood”.

And the “time of peak level of IFN-γ” value [4, 7]?
Its value is 6 h.

What about the “time of peak levels of IFNα, TNFα, IL-6 and IL-12” value [4, 7] of the same compound?
Its value is 2 h.

And the R848 plasma concentration ([5]; 24.00 hr post-dose)?
The R848 plasma concentration was “BLQ”.

What about the R848 plasma concentration ([5]; 72.00 hr post-dose) of the same compound?
The R848 plasma concentration was “BLQ”.

What about the R848 plasma concentration ([5]; 96.00 hr post-dose) of the same compound?
Its R848 plasma concentration is “BLQ”.

What about the R848 plasma concentration ([5]; 120.00 hr post-dose) of the same compound?
Its R848 plasma concentration is “BLQ”.

What about the R848 plasma concentration ([5]; 144.00 hr post-dose) of the same compound?
The R848 plasma concentration was “BLQ”.

Which “time by which STAT5 phosphorylation signal is lost” value (STAT5 phosphorylation) does the source give for “aldesleukin: clinically available IL-2; recombinant IL-2 referred to as aldesleukin” here?
The value was “around 24 hours”.

What about the “ratio of CD8/Treg in the tumor” value [6] of the same compound?
Its value is 18.
